Measured values from patent publication US11206830B2, “Herbicidal composition comprising glufosinate or a salt thereof and pyroxasulfone” (BASF SE, priority 2008, dated 2021).
Read-outs that look alike come from different tables or passages of the source.

Experiments:
Format in all cases: in vivo
[1] = test system: Alopecurus myosuroides (ALOMY); experiment: greenhouse post-emergence herbicidal activity on ALOMY
Description: (§1) For the post-emergence treatment, the test plants were first grown to a height of 3 to 20 cm, depending on the plant habit, and only then treated. Here, the herbicidal compositions were suspended or emulsified in water as distribution medium and sprayed using finely distributing nozzles.
(§2) The respective herbicides B and/or safener were formulated as 10% by weight strength suspension concentrate and introduced to the spray liquor with the amount of solvent system used for applying the active compound. Herbicides A, C and/or safener were used as commercially available formulations and introduced to the spray liquor with the amount of solvent system used for applying the active compound. In the examples, the solvent used was water.
(§3) The test period extended over 21 days. During this time, the plants were tended, and their response to the treatments with active compound was evaluated.
(§4) The evaluation for the damage caused by the chemical compositions was carried out using a scale from 0 to 100%, compared to the untreated control plants. Here, 0 means no damage and 100 means complete destruction of the plants.
(§5) The value E, which is to be expected if the activity of the individual compounds is just additive, was calculated using the method of S. R. Colby (1967) “Calculating synergistic and antagonistic responses of herbicide combinations”, Weeds 15, p. 22 ff. For two component mixtures the value E was calculated by the following formula E=X+Y−(X·Y/100)
(§6) For three component mixtures the value E was calculated by the following formula E=X+Y+Z−(XY+XZ+YZ)/100+(X·YZ/10000) where X=effect in percent using herbicide A at an application rate a; • Y=effect in percent using herbicide B at an application rate b; • Z=effect in percent using herbicide C at an application rate c; • E=expected effect (in %) of A+B at application rates a+b. or • E=expected effect (in %) of A+B+C at application rates a+b+c.
(§7) If the value observed in this manner is higher than the value E calculated according to Colby, a synergistic effect is present.
(§8) Tables 1 to 12 relate to the herbicidal activity of the individual actives and of their combinations in post-emergence application assessed 20 DAT.

[2] = test system: Digitaria sanguinalis (DIGSA); experiment: greenhouse post-emergence herbicidal activity on DIGSA
Description: as §1, §2, §3, §4, §5, §6, §7, §8

[3] = test system: Polygonum convolvulus (POLCO); experiment: greenhouse post-emergence herbicidal activity on POLCO; details: Fallopia convolvulus, 480 h, read-out: % activity 20 DAT
Description: as §1, §2, §3, §4, §5, §6, §7, §8

[4] = test system: Abutilon theophrasti (ABUTH); experiment: greenhouse post-emergence herbicidal activity on ABUTH
Description: as §1, §2, §3, §4, §5, §6, §7, §8

[5] = test system: Chenopodium album (CHEAL); experiment: greenhouse post-emergence herbicidal activity on CHEAL
Description: as §1, §2, §3, §4, §5, §6, §7, §8

[6] = test system: Lolium multiflorum (LOLMU); experiment: greenhouse post-emergence herbicidal activity on LOLMU
Description: as §1, §2, §3, §4, §5, §6, §7, §8

[7] = test system: Avena fatua (AVEFA); experiment: greenhouse post-emergence herbicidal activity on AVEFA; details: 480 h, read-out: % activity 20 DAT
Description: as §1, §2, §3, §4, §5, §6, §7, §8

[8] = test system: Galium aparine (GALAP); experiment: greenhouse post-emergence herbicidal activity on GALAP; details: Galium aparine, 480 h
Description: as §1, §2, §3, §4, §5, §6, §7, §8

[9] = test system: Matricaria inermis (MATIN); experiment: greenhouse post-emergence herbicidal activity on MATIN
Description: as §1, §2, §3, §4, §5, §6, §7, §8

[10] = test system: Sinapis arvensis (SINAR); experiment: greenhouse post-emergence herbicidal activity on SINAR; details: solo application, 135 g ai/ha
Description: as §1, §2, §3
The evaluation for the damage caused by the chemical compositions was carried out using a scale from 0 to 100%, compared to the untreated control plants. […]
The value E, which is to be expected if the activity of the individual compounds is just additive, was calculated using the method of S. R. Colby (1967) “Calculating synergistic and antagonistic responses of herbicide combinations”, Weeds 15, p. […] For two component mixtures the value E was calculated by the following formula E=X+Y−(X·Y/100)
as §6, §7, §8

[11] = Alopecurus myosuroides, 480 h, read-out: % activity 20 DAT, post-emergence, solo application, 6.25 g ai/ha
[12] = Digitaria sanguinalis, 480 h, read-out: % activity 20 DAT

CCc1nc2c(Cl)cc(Cl)c(-c3nn(C)c(OC(F)F)c3Br)c2o1 [Compound B]
inhibition at 6.25 g/ha [1, 11]: 20%
inhibition at 12.5 g/ha ([1]; Alopecurus myosuroides, 480 h, read-out: % activity 20 DAT, post-emergence, solo application, 12.5 g ai/ha): 35%
inhibition at 6.25 g/ha [2, 12]: 50%
inhibition at 6.25 g/ha [3]: 90%
inhibition at 6.25 g/ha ([4]; Abutilon theophrasti, 480 h, read-out: % activity 20 DAT, post-emergence, solo application, 6.25 g ai/ha): 98%
inhibition at 6.25 g/ha ([5]; Chenopodium album, 480 h, read-out: % activity 20 DAT, post-emergence, solo application, 6.25 g ai/ha): 85%

C#CCN1C(=O)COc2cc(F)c(-n3c(=O)n(C)c(=S)n(C)c3=O)cc21 [Compound D]
inhibition at 3.13 g/ha ([1]; Alopecurus myosuroides, 480 h, read-out: % activity 20 DAT, post-emergence, solo application, 3.13 g ai/ha): 30%
inhibition at 6.25 g/ha [1, 11]: 40%
inhibition at 3.13 g/ha [2, 12]: 35%
inhibition at 3.13 g/ha [3]: 95%
inhibition at 3.13 g/ha ([6]; Lolium multiflorum, 480 h, read-out: % activity 20 DAT, post-emergence, solo application, 3.13 g ai/ha): 40%
inhibition at 3.13 g/ha ([5]; Chenopodium album, 480 h, read-out: % activity 20 DAT, post-emergence, solo application, 3.13 g ai/ha): 45%
inhibition at 6.25 g/ha [7]: 75%
inhibition at 3.13 g/ha ([8]; read-out: % activity 20 DAT, post-emergence, solo application, 3.13 g ai/ha): 30%
inhibition at 6.25 g/ha ([8]; read-out: % activity 20 DAT, post-emergence, solo application, 6.25 g ai/ha): 30%

CCNc1nc(Cl)nc(NC(C)C)n1 [atrazin]
inhibition at 250 g/ha ([1]; Alopecurus myosuroides, 480 h, solo application, 250 g ai/ha, read-out: % activity 20 DAT): 50%
inhibition at 62.5 g/ha ([2]; Digitaria sanguinalis, 480 h, solo application, 62.5 g ai/ha, read-out: % activity 20 DAT): 0%
inhibition at 62.5 g/ha ([5]; Chenopodium album, 480 h, solo application, 62.5 g ai/ha, read-out: % activity 20 DAT): 20%
inhibition at 125 g/ha ([5]; Chenopodium album, 480 h, solo application, 125 g ai/ha, read-out: % activity 20 DAT): 60%

COc1c(Cl)ccc(Cl)c1C(=O)O [dicamba]
inhibition at 25 g/ha ([9]; Matricaria, 480 h, read-out: % activity 20 DAT, post-emergence, solo application, 25 g ai/ha): 45%
inhibition at 25 g/ha ([1]; Alopecurus myosuroides, 480 h, solo application, 25 g ai/ha, read-out: % activity 20 DAT): 10%
inhibition at 50 g/ha ([4]; Abutilon theophrasti, 480 h, solo application, 50 g ai/ha, read-out: % activity 20 DAT): 50%
inhibition at 50 g/ha ([6]; Lolium multiflorum, 480 h, solo application, 50 g ai/ha, read-out: % activity 20 DAT): 0%
inhibition at 50 g/ha ([5]; Chenopodium album, 480 h, solo application, 50 g ai/ha, read-out: % activity 20 DAT): 50%

COC[C@H](C)N(C(=O)CCl)c1c(C)csc1C [dimethenamid-P]
% activity 20 DAT [10]: 45%
% activity 20 DAT ([9]; solo application, 135 g ai/ha): 0%
% activity 20 DAT ([9]; solo application, 270 g ai/ha): 0%
% activity 20 DAT ([1]; solo application, 270 g ai/ha): 20%
% activity 20 DAT ([1]; solo application, 540 g ai/ha): 30%
% activity 20 DAT ([2]; solo application, 135 g ai/ha): 50%
% activity 20 DAT ([2]; solo application, 270 g ai/ha): 50%
% activity 20 DAT ([4]; solo application, 135 g ai/ha): 15%
% activity 20 DAT ([4]; solo application, 540 g ai/ha): 15%
% activity 20 DAT ([6]; solo application, 135 g ai/ha): 60%
% activity 20 DAT ([5]; solo application, 270 g ai/ha): 20%

C#CCN1C(=O)COc2cc(F)c(N3C(=O)C4=C(CCCC4)C3=O)cc21 [flumioxazin]
inhibition at 6.25 g/ha ([9]; Matricaria, 480 h, solo application, 6.25 g ai/ha, read-out: % activity 20 DAT): 65%
inhibition at 6.25 g/ha ([1]; Alopecurus myosuroides, 480 h, solo application, 6.25 g ai/ha, read-out: % activity 20 DAT): 20%
inhibition at 12.5 g/ha ([1]; Alopecurus myosuroides, 480 h, solo application, 12.5 g ai/ha, read-out: % activity 20 DAT): 20%
inhibition at 6.25 g/ha ([2]; Digitaria sanguinalis, 480 h, solo application, 6.25 g ai/ha, read-out: % activity 20 DAT): 15%
inhibition at 6.25 g/ha ([5]; Chenopodium album, 480 h, solo application, 6.25 g ai/ha, read-out: % activity 20 DAT): 0%
inhibition at 12.5 g/ha ([5]; Chenopodium album, 480 h, solo application, 12.5 g ai/ha, read-out: % activity 20 DAT): 30%
inhibition at 6.25 g/ha ([7]; solo application, 6.25 g ai/ha): 35%
inhibition at 6.25 g/ha ([8]; solo application, 6.25 g ai/ha, read-out: % activity 20 DAT): 30%
inhibition at 12.5 g/ha ([8]; solo application, 12.5 g ai/ha, read-out: % activity 20 DAT): 30%
